The text below walks through data of publication PMC11054638, “Transport of Non-Steroidal Anti-Inflammatory Drugs across an Oral Mucosa Epithelium In Vitro Model” (Pharmaceutics, 2024).

For data set [1] the following is noted: after oral administration of 200 mg ref 52, 53; cited from earlier work.
Data set [2] has as its system TR146 cell layers. Briefly: TEER after 48 h inflammation study. The format is cell-based, human. The settings on record: 48 h treatment; ibuprofen 100 µM; cytokines 100 ng/mL each.
The subject of data set [3] is oral mucosa epithelium in vitro model based on human cell line TR146. Briefly: Transport study across oral mucosa Transwell model, apical to basolateral, 240 min. The settings on record: for permeability coefficient: mean ± SEM. As to the method:
(§1) As soon as cells reached confluency, cultivation was switched from submerged to airlift and 1% Human Keratinocytes Growth Supplements (HKGS, Gibco, Thermofisher, Vienna, Austria, S0015) was added to the cultivation media on the basolateral compartment. Media were changed every 2–3 days until the day of experiment on day 29. Cells from passage 14–36 were used for experiments. Transepithelial electric resistance (TEER) was measured on day of experiment, as described in detail previously.
(§2) Solutions were diluted to 10 µM (carboxyfluorescein) or 100 µM in DMEM on day of experiments.
(§3) First, TEER was measured in cultivation media on the day of experiment. Afterwards, cells and blanks were washed twice with DMEM on the apical (300 µL) and basolateral (900 µL) compartments and selected cells and blanks were treated with DMEM with or without 100 µM probenecid or verapamil on the apical and basolateral side at 37 °C for 30 min. […] To cells which were pre-incubated with probenecid or verapamil, 100 µM probenecid or verapamil was applied apically as well. DMSO content was adapted for cells with no inhibitors, and DMSO and dd-H2O content was adjusted in the basolateral compartment as well in order to apply the same vehicle concentrations on the apical and basolateral compartment. […] Subsequently, duplicates of apical sample were collected, and samples were frozen at −80 °C until further analysis with High-Performance Liquid Chromatography (HPLC).
(§4) Peaks were quantified using the software Chromeleon Version 7.2.6, and corresponding mili absorbance unit × time [mAU × min] values were used for data analysis.
(§5) Mean values of relative fluorescence unit (RFU) or detected area [mAU × min] were used for calculation. For the first timepoint, the clearance [µL] for the detected area was calculated as shown in the formula below (1a), with Abasot1 as the measured area [mAU × min] at the first time point of the basolateral sample, Vbaso as the basolateral volume [µL] and Astock as the area measured for the applied stock solution. […] Clearance [µL] for carboxyfluorescein was calculated with the same formulas using RFU. (1a) Clearance=Abasot1×Vbaso/AStock (1b) Clearancetn=Abasotn×Vbaso/AStock−∑(Abasotn−1 ×3− Abasot1 ×3)
(§6) Cleared volume [µL] was calculated by plotting the sum of clearance at all time points over time [min]. The resulting slope PS [µL/min] was calculated inversely. For calculation of the PScell, the inverse PS blanks were subtracted, as shown below in Formula (2). (2) 1/PScell=1/PSall−1/PSblank
(§7) The final permeability coefficient is calculated by dividing the inverse PScell by the area of the ThinCerts (0.336 cm^2) and multiplying by a conversion factor to give the permeability coefficient as µm/min.

The next data set is described as follows: in vitro. As to conditions: human. The procedure: as §1, §2, §3, §4, §5, §6, §7
Data set [4] concerns TR146 cell layers.
The mark [5] stands for this setting: Ibuprofen study, Probenecid, mean ± SD.
[6] abbreviates: Ibuprofen study, Verapamil, mean ± SD.
Where [7] appears, read: Ibuprofen study, w/o Inhibitor, mean ± SD.

Each structure is given as a SMILES string. Read-outs that look alike come from different tables or passages of the source.

The term Papp A→B denotes how fast a substance crosses the layer from the apical side. With `CC(C)Cc1ccc(C(C)C(=O)O)cc1` (stereo not shown) [ibuprofen], in data set [1], the plasma concentration is 116 to 142.5 µM. In addition, the “TEER values after 48 h” value in the data set with TR146 cell layers [2] is 69.65 ± 9.10 Ω × cm^2. In addition, the “PS all (cell + blank)” value in data set [3] (setting [5]) is reported as 0.12 ± 0.03 µL/min; in data set [3] (setting [6]), 0.11 ± 0.01 µL/min; in data set [3] (setting [7]), 0.1 ± 0.01 µL/min. Moreover, the PS cell is on record as 0.26 ± 0.11 µL/min in data set [3] (setting [5]), 0.24 ± 0.04 µL/min in data set [3] (setting [6]) and 0.19 ± 0.05 µL/min in data set [3] (setting [7]). For the same molecule, the “PE (permeability of cell + blank)” value in data set [3] (setting [7]) amounted to 2.94 ± 0.3 µm/min; in data set [3] (human, 240 min) it was 3.47 ± 0.76 µm/min. The “Permeability coefficient without inflammation and inhibitor” value in data set [3] (Table S3, mean ± SD) came out at 5.77 ± 1.48 µm/min. Also, the “increase of permeability coefficient with probenecid compared to no inhibitor” value in data set [3] (human, 240 min, 100 µM) stood at 1.36 fold. Besides, the “increase of permeability coefficient with verapamil compared to no inhibitor” value in data set [3] (human, 240 min, 100 µM) is on record as 1.23 fold. The “cumulated concentration of NSAID in the basolateral compartment” value in data set [3] (human, 4 h, 100 µM) was determined as 0.067 ± 0.0078 nmol/mm^2. Moreover, the permeability coefficient in data set [3] (with 100 µM probenecid) was determined as 7.87 ± 1.32 µm/min; in data set [3] (with 100 µM verapamil), 7.13 ± 0.51 µm/min; in data set [3] (without inhibitor, 100 µM apical (CF 10 µM)) it was 5.77 ± 0.60 µm/min. The results for the Papp A→B at 240 min in the data set “in vitro” (PC (permeability of cell)) and in “in vitro” (PE (permeability of cell + blank)) were 13.1 ×10⁻⁶ cm/s and 5.45 ×10⁻⁶ cm/s, respectively. Also, in the data set on TR146 cell layers [4] (cells treated with cytokines), the “regulation of permeability with or without probenecid” value is “no distinct regulation”. Moreover, the “higher permeability by addition of probenecid” value with TR146 cell layers [4] (cells treated with ibuprofen previously) was 52.64%; in the data set on TR146 cell layers [4] (control group), 42.46%.
